# Measured values published in article PMC10047683, “A Novel Family of Lysosomotropic Tetracyclic Compounds for Treating Leukemia” (Cancers, 2023).
# How the values were obtained:
# [1] = system: MonoMac1 AML cells; assay: MonoMac1 AML xenograft, bone-marrow engraftment; format: in vivo, NSG mice; details: 30 mg/kg IP, 10 consecutive days; engraftment at Day 12
# Experimental: We myeloablated 6–8-week-old NOD.Cg-Prkdc^scid Il2rg^tm1Wjl/SzJ (NSG, Jackson Laboratories) mice with busulfan (30 mg/kg IP) at Day 0. The next day, mice were transplanted with KG1 (10 million cells per mouse) or MonoMac1 (1 million per mouse) AML cells that had previously been transduced with luciferase-containing plasmid pLL-EF1a-rFLuc-T2A-GFP (Systems Bioscience #LL410PA-1) and left untreated for 3 (MonoMac1) or 5 days (KG1). For IP administration, compounds were dissolved in DMSO and diluted in saline prior to injection. For SC treatments, drugs were solubilized using Tween 80 (Escuder) and high-viscosity carboxymethylcellulose (CMC, Merck). For bioluminescence detection, mice were SC-administered 150 mg/kg Xenolight D-luciferin potassium salt luminescent substrate (Perkin Elmer), and the luminescence of isoflurane-anesthetized mice was acquired after 10 min in an IVIS Lumina II imaging device (Perkin Elmer) at adequate acquisition times (2 min for MonoMac-1, 30 s for KG1). The following quantitation and analysis were conducted with Aura Imaging software (Spectral Instruments Imaging). The last day of the experiment, mice were culled, and tibias and femurs were harvested. Engraftment was determined as the percentage of live human CD45-expressing cells in the bone marrow as assessed with flow cytometry. […]
# [2] = system: peripheral blood mononuclear cells from healthy donors' buffy coats; assay: Cytotoxicity in healthy donor blood cells; format: cell-based, human; details: 72 h
# From the text: Primary AML samples were obtained at diagnosis from patients diagnosed at Hospital Clínic of Barcelona (Spain) and Hospital Germans Trias i Pujol (Badalona, Spain). AML diagnosis, classification, and risk stratification were based on the latest revised WHO criteria (Supplementary Table S1). Clinical characteristics of AML patients are summarized in Supplementary Table S1. Mononuclear cells (MNCs) were isolated with Ficoll density gradient centrifugation (GE Healthcare, Chicago, IL, USA). All patients provided their written informed consent in accordance with the Declaration of Helsinki, and the study was approved by the corresponding ethics committees. Mature blood MNCs were isolated from healthy donors’ buffy coats provided by Banc de Sang i Teixits (BSiT, Barcelona, Spain). Umbilical-cord blood was provided by BSiT, and MNCs were depleted for lineage marker-positive cells using magnetic separation with the Human Lineage Cell Depletion kit (Miltenyi Biotec, North Rhine-Westphalia, Germany) following the manufacturer’s recommendations.
# First, 2 × 10^5 (72 h assays in cell lines (Supplementary File S1)), 3 × 10^5 (48 h assays in cell lines) or 7.5 × 10^5 (primary AML, healthy donor buffy coats) cells per mL were cultured in 96-well plates, and all drugs were added at the indicated concentrations. In α-tocopherol experiments, cells were treated with growing concentrations of α-tocopherol and EDK drugs for 48 h. In the NAC and 3MA experiments, treatment was simultaneous with EDK compounds. In glucose deprivation experiments, cells were cultivated with a standard medium (glucose high, 2 g/L), a standard medium without glucose, or a standard medium with galactose (2 g/L) and without glucose. Cell viability was measured via 7-AAD (eBioscience) exclusion and Hoechst33342 (Sigma-Aldrich, St. Louis, MO, USA) positivity staining via flow cytometry, and the cell count was obtained through volume. In the experiments with the primary cells, analyses were performed inside the blast population as detected via blast gates (CD45^low SSC^int). For solid tumor cell lines, viability was analyzed using CellTiter-Glo® Luminescent Cell Viability Assay (Promega).
structure (smiles),measurement,setting,value
CN1CCC(=C2c3ccccc3-c3c2sc2ccccc32)CC1 [EDK-87],reduced the leukemic burden in the bone marrow,[1],58.44%
same,healthy-donor blood cells affected,"[2]; 9 healthy donors, EDK-87 10 and 25 µM, EDK-88 5 and 10 µM assayed",33.2% ± 8.1
same,# Live cells refer to control,"[2]; BC sample #20, 5 µM",140%
same,# Live cells refer to control,"[2]; BC sample #20, 10 µM",113%
same,# Live cells refer to control,"[2]; BC sample #26, 5 µM",78%
same,# Live cells refer to control,"[2]; BC sample #26, 10 µM",65%
same,# Live cells refer to control,"[2]; BC sample #31, 5 µM",83%
same,# Live cells refer to control,"[2]; BC sample #31, 10 µM",56%
same,# Live cells refer to control,"[2]; BC sample #32, 5 µM",81%
same,# Live cells refer to control,"[2]; BC sample #32, 10 µM",41%
same,# Live cells refer to control,"[2]; BC sample #32, 25 µM",72%
same,# Live cells refer to control,"[2]; BC sample #41, 5 µM",77%
same,# Live cells refer to control,"[2]; BC sample #41, 10 µM",87%
same,# Live cells refer to control,"[2]; BC sample #44, 5 µM",74%
same,# Live cells refer to control,"[2]; BC sample #44, 10 µM",76%
same,# Live cells refer to control,"[2]; BC sample #44, 25 µM",80%
same,# Live cells refer to control,"[2]; BC sample #51, 5 µM",101%
same,# Live cells refer to control,"[2]; BC sample #51, 10 µM",77%
same,# Live cells refer to control,"[2]; BC sample #59, 5 µM",89%
same,# Live cells refer to control,"[2]; BC sample #59, 10 µM",41%
same,# Live cells refer to control,"[2]; BC sample #59, 25 µM",13%
same,# Live cells refer to control,"[2]; BC sample #63, 5 µM",92%
same,# Live cells refer to control,"[2]; BC sample #63, 10 µM",45%
same,# Live cells refer to control,"[2]; BC sample #63, 25 µM",22%
